Assay results published in ChEMBL document CHEMBL1201862, “PubChem BioAssay data set” (2004).
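Dose response: 5 concentrations. Exposure: 48 h. Format: 96-well plates. Endpoint: linear interpolation; highest concentration if not reached. Here, GI50 denotes the concentration required for 50% inhibition of growth.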 Calls of active or inactive are those of the source. Rule as the data show it: active = GI50 up to about 1.1 µM and inactive = higher.

Tests used:
Experiment in all cases: NCI tumour cell line growth inhibition, 48 h
TK-10 = test system: TK-10
K562 = test system: K562
SR = test system: SR
LOX IMVI = test system: LOX IMVI
786-0 = test system: 786-0
OVCAR-4 = test system: OVCAR-4
HL-60 = test system: HL-60
OVCAR-5 = test system: OVCAR-5
COLO 205 = test system: COLO 205
CAKI-1 = test system: CAKI-1
NCI-H522 = test system: NCI-H522
SNB-75 = test system: SNB-75
MOLT-4 = test system: MOLT-4
NCI-H23 = test system: NCI-H23
SNB-19 = test system: SNB-19
SF-268 = test system: SF-268
HOP-92 = test system: HOP-92

SMILES	GI50 (TK-10)	GI50 (K562)	GI50 (SR)	GI50 (LOX IMVI)	GI50 (786-0)	GI50 (OVCAR-4)	GI50 (HL-60)	GI50 (OVCAR-5)	GI50 (COLO 205)	GI50 (CAKI-1)	GI50 (NCI-H522)	GI50 (SNB-75)	GI50 (MOLT-4)	GI50 (NCI-H23)	GI50 (SNB-19)	GI50 (SF-268)	GI50 (HOP-92)
CN(C)NC1=C([N+](=O)[O-])C=NN(c2ccccc2)C1	3.19 µM (inactive)	2.44 µM (inactive)	0.811 µM (active)	1.59 µM (inactive)	1.77 µM (inactive)	1.66 µM (inactive)	2.04 µM (inactive)	1.67 µM (inactive)	1.79 µM (inactive)	1.95 µM (inactive)	0.177 µM (active)	1.73 µM (inactive)	2.09 µM (inactive)	1.87 µM (inactive)	2.54 µM (inactive)	1.85 µM (inactive)	2.02 µM (inactive)
CN(C)CCNC(=O)c1cccc2c1nc(-c1ccccn1)c1ccccc12	> 10 µM (inactive)	16.9 µM (inactive)		> 10 µM (inactive)	18.9 µM (inactive)	17.3 µM (inactive)	16.4 µM (inactive)	14.8 µM (inactive)	12.3 µM (inactive)	18.1 µM (inactive)		21.3 µM (inactive)	3.87 µM (inactive)	15.7 µM (inactive)	30.7 µM (inactive)	23.3 µM (inactive)	18.6 µM (inactive)
COc1ccc(OC)c(NC(=O)CCC/C(CC(=O)c2ccc(O)c(OC)c2)=N\NC(=O)C[N+](C)(C)C)c1	> 100 µM (inactive)	> 100 µM (inactive)	> 100 µM (inactive)	> 100 µM (inactive)	> 100 µM (inactive)	> 100 µM (inactive)	> 100 µM (inactive)	> 100 µM (inactive)	> 100 µM (inactive)	> 100 µM (inactive)	> 100 µM (inactive)	84.7 µM (inactive)	> 100 µM (inactive)	> 100 µM (inactive)	> 100 µM (inactive)	> 100 µM (inactive)	> 100 µM (inactive)
C#Cc1cccc(N2C(=O)CC(=P(c3ccccc3)(c3ccccc3)c3ccccc3)C2=O)c1	> 100 µM (inactive)	35.4 µM (inactive)	39.4 µM (inactive)		24.5 µM (inactive)	69.2 µM (inactive)	15.1 µM (inactive)	57 µM (inactive)	44.9 µM (inactive)	> 100 µM (inactive)	25 µM (inactive)	91.8 µM (inactive)	51.8 µM (inactive)	40.7 µM (inactive)	69 µM (inactive)	62.1 µM (inactive)	
Cc1cc(NS(=O)(=O)c2ccc(Nc3c4ccccc4nc4c(C(=O)Nc5ccc(S(=O)(=O)N=C(N)N)cc5)ccc(Cl)c34)cc2)no1	> 100 µM (inactive)	22.1 µM (inactive)	25.2 µM (inactive)	19.6 µM (inactive)	50.4 µM (inactive)	28.5 µM (inactive)	22.2 µM (inactive)	> 100 µM (inactive)	83 µM (inactive)	54.2 µM (inactive)	16 µM (inactive)	25.9 µM (inactive)	24.7 µM (inactive)	29.9 µM (inactive)	31.7 µM (inactive)	23.8 µM (inactive)	
CC1CC(C)C(=O)C(C(=O)CC2CC(=O)NC2=O)C1 (centres undefined)	> 100 µM (inactive)	> 100 µM (inactive)	> 100 µM (inactive)	> 100 µM (inactive)	> 100 µM (inactive)	> 100 µM (inactive)	> 100 µM (inactive)	> 100 µM (inactive)	> 100 µM (inactive)	> 100 µM (inactive)	> 100 µM (inactive)	> 100 µM (inactive)		> 100 µM (inactive)	> 100 µM (inactive)	> 100 µM (inactive)	> 100 µM (inactive)
COC(=O)c1c(C)oc2ccc(OC(C)=O)cc12	> 100 µM (inactive)	> 100 µM (inactive)	> 100 µM (inactive)	> 100 µM (inactive)	> 100 µM (inactive)	> 100 µM (inactive)	> 100 µM (inactive)	> 100 µM (inactive)	> 100 µM (inactive)	> 100 µM (inactive)	> 100 µM (inactive)	34.8 µM (inactive)	> 100 µM (inactive)	> 100 µM (inactive)	> 100 µM (inactive)	90.8 µM (inactive)	
COc1ccc(N(C)Sc2ccccc2)cc1	> 100 µM (inactive)	41.4 µM (inactive)	43.7 µM (inactive)	31.1 µM (inactive)	16.9 µM (inactive)		15.1 µM (inactive)	> 100 µM (inactive)	> 100 µM (inactive)		38.8 µM (inactive)		13.1 µM (inactive)	83.4 µM (inactive)	51.1 µM (inactive)	27.4 µM (inactive)	79.8 µM (inactive)
CN(C)c1ccc2c(c1)C(=O)N(OS(=O)(=O)c1ccc([N+](=O)[O-])cc1)C2=O	59 µM (inactive)	31.6 µM (inactive)	22.4 µM (inactive)		19.3 µM (inactive)	15.7 µM (inactive)	28.6 µM (inactive)	25.4 µM (inactive)	24.3 µM (inactive)	22.4 µM (inactive)	15 µM (inactive)	31.6 µM (inactive)		26.2 µM (inactive)	41.7 µM (inactive)	27.2 µM (inactive)	> 10 µM (inactive)
O=C(c1nc2ccc(Cl)cc2[nH]c1=O)C(O)c1ccco1 (centres undefined)	> 100 µM (inactive)	22.1 µM (inactive)		36.6 µM (inactive)	> 100 µM (inactive)	> 100 µM (inactive)	6.14 µM (inactive)	> 100 µM (inactive)	> 100 µM (inactive)	53 µM (inactive)	1.9 µM (inactive)	> 100 µM (inactive)	8.57 µM (inactive)	> 100 µM (inactive)	> 100 µM (inactive)	98.9 µM (inactive)	> 100 µM (inactive)
S=C1OC2C3C4CC5C3C(O1)C1C5C4C21 (centres undefined)	> 100 µM (inactive)		> 100 µM (inactive)	74 µM (inactive)	> 100 µM (inactive)	> 100 µM (inactive)	> 100 µM (inactive)	> 100 µM (inactive)	> 100 µM (inactive)	> 100 µM (inactive)	> 100 µM (inactive)	> 100 µM (inactive)	> 100 µM (inactive)		> 100 µM (inactive)	> 100 µM (inactive)	> 100 µM (inactive)
N#Cc1c(-c2ccco2)cc(-c2ccc(N)cc2)[nH]c1=O	> 100 µM (inactive)	> 100 µM (inactive)	> 100 µM (inactive)	> 100 µM (inactive)	> 100 µM (inactive)	> 100 µM (inactive)	> 100 µM (inactive)	> 100 µM (inactive)			> 100 µM (inactive)	> 100 µM (inactive)	> 100 µM (inactive)	> 100 µM (inactive)	> 100 µM (inactive)	> 100 µM (inactive)	> 100 µM (inactive)
CC1(Cl)CC2OC3(Br)C=CC(C)(O)C2(CC1Br)C3(C)C (centres undefined)	> 100 µM (inactive)	> 100 µM (inactive)	23.6 µM (inactive)	> 100 µM (inactive)	> 100 µM (inactive)	> 100 µM (inactive)	51.1 µM (inactive)	> 100 µM (inactive)	> 100 µM (inactive)	> 100 µM (inactive)		82.6 µM (inactive)	> 100 µM (inactive)	> 100 µM (inactive)	> 100 µM (inactive)	> 100 µM (inactive)	50.9 µM (inactive)
COc1ccc(C(=O)NCCC2=CCCCC2)cc1	> 100 µM (inactive)	> 100 µM (inactive)	> 100 µM (inactive)	> 100 µM (inactive)	> 100 µM (inactive)	> 100 µM (inactive)		> 100 µM (inactive)	> 100 µM (inactive)	> 100 µM (inactive)		> 100 µM (inactive)		> 100 µM (inactive)	> 100 µM (inactive)	> 100 µM (inactive)	78.5 µM (inactive)
O=C(O)CSc1nnc(-c2ccco2)[nH]1	> 100 µM (inactive)	> 100 µM (inactive)		> 100 µM (inactive)	> 100 µM (inactive)	> 100 µM (inactive)	> 100 µM (inactive)	> 100 µM (inactive)	> 100 µM (inactive)	> 100 µM (inactive)	> 100 µM (inactive)	95.5 µM (inactive)	> 100 µM (inactive)	> 100 µM (inactive)	> 100 µM (inactive)		> 100 µM (inactive)
COc1ccc(O)c(C(=O)CCC(=O)O)c1	> 100 µM (inactive)	> 100 µM (inactive)	> 100 µM (inactive)	> 100 µM (inactive)	> 100 µM (inactive)	> 100 µM (inactive)	> 100 µM (inactive)	> 100 µM (inactive)	> 100 µM (inactive)		> 100 µM (inactive)	> 100 µM (inactive)	> 100 µM (inactive)	> 100 µM (inactive)	> 100 µM (inactive)	> 100 µM (inactive)	> 100 µM (inactive)
COCOCCCCCO[Si](C)(C)C(C)(C)C	33 µM (inactive)	26.4 µM (inactive)	18.2 µM (inactive)	16.5 µM (inactive)	14.4 µM (inactive)		7.1 µM (inactive)	16.9 µM (inactive)	19 µM (inactive)		13.7 µM (inactive)	30.3 µM (inactive)	16.1 µM (inactive)	17.2 µM (inactive)	16 µM (inactive)	5.19 µM (inactive)	17.7 µM (inactive)
O=C(Nc1ccc(Br)cc1)C(=O)C(C(=O)c1ccccc1F)C1OC(=O)c2ccccc21 (centres undefined)	50.5 µM (inactive)	31 µM (inactive)		18.4 µM (inactive)	22.5 µM (inactive)	24.7 µM (inactive)	23.7 µM (inactive)	48 µM (inactive)	20.4 µM (inactive)	37.8 µM (inactive)	20.7 µM (inactive)	19.7 µM (inactive)	25.3 µM (inactive)	17.9 µM (inactive)	20.3 µM (inactive)	24.9 µM (inactive)	27.7 µM (inactive)
